Laboratory results taken from patent US9128108B2, “Mephedrone detection” (Randox Laboratories Limted, priority 2010, dated 2015).

Test system: raised antibody (polyclonal IgG raised against Immunogen 1, Hapten 1-BSA)
Assay: Competitive ELISA with Hapten 1-HRP conjugate confirming binding of raised antibody
Set-up: species or system sheep
Settings: for binding of raised antibody (in words): competitive immunoassay at different antibody and conjugate concentrations; for Standard Absorb. / % Drop: standard 100 ng/ml; for Standard Absorb.: absorbance at 450 nm; for % Drop: drop of absorbance versus zero standard
Experimental: The process of developing an immunoassay is well known to the person skilled in the art. Briefly, for a competitive immunoassay in which the target analyte is a non-immunogenic molecule such as a hapten, the following process is conducted: antibodies are produced by immunising an animal, preferably a mammalian animal, by repeated administration of an immunogen. The serum from the immunised animal is collected when the antibody titre is sufficiently high. A conjugate is added to a sample containing the target analyte and the raised antibodies, and the conjugate and analyte compete for binding to the antibodies. The process may comprise fixing said serum antibodies to a backing substrate such as a polystyrene solid support or a biochip. The antibodies can be polyclonal or monoclonal, monoclonal antibodies being obtainable from polyclonal sera using standard techniques. The signal emitted in the immunoassay is proportionate to the amount of conjugate bound to the antibodies which in turn is inversely proportionate to the analyte concentration. The signal can be detected or quantified by comparison with a calibrator.
Hapten 1 was conjugated to bovine serum albumin (BSA). The resulting immunogen (Immunogen 1) was administered to adult sheep on a monthly basis to provide target-specific polyclonal antisera. IgG was extracted from the antisera via caprylic acid/ammonium sulphate precipitation of immunoglobulin. Microtitre plates (Thermo Scientific, 468667) were coated with antibody (125 μl) in coating buffer (10 mM Tris pH 8.5) at 37° C. for 2 hours. The plates were then washed 4 times over 10 minutes with working strength TBST. 50 μl of sample/standard (Methcathinone, Sigma M-5037; Cathinone, Sigma C-3196 and Mephedrone, Randox LK973) was added to the appropriate wells in triplicate, followed by 75 μl of Hapten 1-HRP conjugate and incubated at 25° C. for 1 hour. The plates were then washed and 125 μl of TMB (Randox, 4380-15) was added to each well and left at room temperature for 20 mins in the dark. The reaction was stopped using 125 μl of 0.2M sulphuric acid. The absorbances were read at 450 nm with an ELISA microplate reader (BIO-TEK Instruments, Elx800) and the means calculated.
Competitive immunoassay results at different antibody and conjugate concentrations show the raised antibody binds to mephedrone, methcathinone and cathinone (Table 1).

[1] = antibody 1.25 ug/ml, Hapten 1-HRP conjugate dilution 1/8K, zero absorb. 1.986
[2] = antibody 1.25 ug/ml, Hapten 1-HRP conjugate dilution 1/8K
[3] = antibody 5 ug/ml, Hapten 1-HRP conjugate dilution 1/4K, zero absorb. 1.961
[4] = antibody 5 ug/ml, Hapten 1-HRP conjugate dilution 1/4K

SMILES: CNC(C)C(=O)c1ccccc1 (stereo not drawn) [Methcathinone, 2-methylamino-1-phenylpropan-1-one]
- binding of raised antibody (in words): binds
- Standard Absorb. [1]: 0.169
- % Drop [2]: 91.5%
- Standard Absorb. [3]: 0.205
- % Drop [4]: 89.5%

SMILES: CNC(C)C(=O)c1ccc(C)cc1 (racemic) [Mephedrone, (RS)-2-methylamino-1-(4-methylphenyl)propan-1-one]
- binding of raised antibody (in words): binds
- Standard Absorb. [1]: 0.087
- % Drop [2]: 95.6%
- Standard Absorb. [3]: 0.120
- % Drop [4]: 93.9%

SMILES: C[C@H](N)C(=O)c1ccccc1 [Cathinone]
- binding of raised antibody (in words): binds
- Standard Absorb. [1]: 1.515
- % Drop [2]: 23.7%
- Standard Absorb. [3]: 1.600
- % Drop [4]: 18.4%
